# Data taken from patent US20050019746A1, “Apoptosis-related kinase/GPCRs” (EiRx Therapeutics Limited, priority 2003, published 2005).
# What was measured:
# Type in all cases: cell-based, human
# PC3 cells = test: 10-14 day Clonagenicity Assay (MTT), PC3; conditions: for percentage survival relative to the missense, n = 1: independent experiment n = 1, dilution point of maximum toxicity; for percentage survival relative to the missense, n = 3: independent experiment n = 3, dilution point of maximum toxicity; for percentage survival relative to the missense, n = 2: independent experiment n = 2, dilution point of maximum toxicity
# Source text: The Clonagenicity Assay represents a Cell Viability Screen that allows assessment of a cytotoxic insult at a variety of seed densities of cancer cell lines over an extended period of logarithmic growth, such that the definitive effect of the test substance can be accurately quantified. In this instance, the ‘cytotoxic insult’ to be tested involves the transfection of siRNA Oligomers to knockdown the expression of novel target Kinases and GPCRs as outlined previously. Cell number is quantified 10-14 days post siRNA transfection by MTT conversion as described in detail in Example 6.
# The Clonagenicity Assay is optimised for each cell line examined with respect to seed number. The seed number varies for each cell line and accounts for the differences in cell size, growth rate and sensitivity to transfection-induced toxicity for each cell line pursued. Cells lines given as models for this example include HCT15, MCF7, A549, SKOV3, DU145, U251, PC3, A498 and HeLa. The siRNA oligo to Survivin serves as a positive control for toxicity in this assay and the missense control oligomer acts as a negative control as described in detail in Examples 5 and 6. The c-Raf, BCL2 and PI3K siRNA oligomers serve as additional controls as previously mentioned. The Clonagenicity assay is performed as outlined below.
# Cells are seeded into a 96-well plate as described below and allowed to adhere overnight at 37° C. in a humidified atmosphere containing 5% CO2 in air. Wells are seeded with an appropriate cell number (cell line dependent) in Column 1 of the 96 well plates and this cell suspension is diluted 1 in 2 across the 96 well plates from Column 1 through to 6 (represented on the x-axis in results). Cells are next transfected with siRNA Oligomers, at a concentration of 2 μg/ml, against the genes of interest. Transfections continue for 4 hrs after which the transfection solution is removed and cells are refed with fresh medium and allow to incubate overnight. An additional media change@24 hrs post transfection is made to minimise toxicity of the transfection reagent. Cells are subsequently incubated for a 10-14 Day period post transfection at a 37° C. incubation as described above. Medium is renewed weekly following which MTT quantification is performed as described in Example 5.
# To be considered cytotoxic, the siRNA Oligo against the gene target must induce a decreased viability in a cell line across at least 2 seed densities in the clonagenicity assay, such that a significant difference between the target gene and MS is observed i.e. no crossing of the Standard Error bars is detected. The average percentage viability, relative to missense, is recorded for the dilution point at which Maximum Toxicity is induced is recorded in Table 13.
# Table 13 Clonagenicity Assay—This table gives the average percentage survival of the indicated cell lines relative to the missense in a clonagenicity assay, over 3 independent experiments. As an internal reference, the known survival gene ‘Survivin’, BCL2, c-Raf and PI3KR1 was also targeted by siRNA. When no Cytotoxic response is detected ‘-’ is recorded.
# A549 cells = test: 10-14 day Clonagenicity Assay (MTT), A549; conditions: for percentage survival relative to the missense, n = 1: independent experiment n = 1, dilution point of maximum toxicity; for percentage survival relative to the missense, n = 3: independent experiment n = 3, dilution point of maximum toxicity; for percentage survival relative to the missense, n = 2: independent experiment n = 2, dilution point of maximum toxicity
# How it was run: (§1)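 Read-out is MTT conversion 10-14 days after siRNA transfection, expressed as average percentage viability relative to missense oligomer at the seed density of maximum toxicity. Oligomers were applied at 2 μg/ml for 4 hours to cells plated over six 1-in-2 dilutions. Cytotoxicity required reduced viability at two or more seed densities.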
# HCT15 cells = test: 10-14 day Clonagenicity Assay (MTT), HCT15; conditions: for percentage survival relative to the missense, n = 1: independent experiment n = 1, dilution point of maximum toxicity; for percentage survival relative to the missense, n = 2: independent experiment n = 2, dilution point of maximum toxicity
# How it was run: as §1
# [1] = system: target gene mRNA in TF1 cells; test: Knockdown by RNAi, QPCR, TF1 cells; conditions: 48 hrs post transfection, relative to missense control; for % Knockdown by RNAi, TF1 − GMCSF: TF1 without GM-CSF; for % Knockdown by RNAi, TF1 + GMCSF: TF1 with GM-CSF
# Protocol: In the case of TF1 cells, 2×10^5 cells/ well are transfected with 2 μg of siRNA in each well of a 24 well plate using […] DMRIE-C reagent (InVitrogen) per ml of Optimem (Gibco). Cells are simultaneously transfected in parallel with a control missense siRNA. Recombinant GM-CSF at 2 ng/ml is added to the OPTI-MEM media during transfection. The transfection media is replaced after four hours with fresh RPMI 1640 containing […] GMSCF and 10% FCS and incubated at 37° C. Twenty-four hours post-transfection, the media are changed; RPMI 1640+10% FCS containing […] GMSCF is added to 3 wells and RPMI 1640+10% FCS without GMSCF is added to the other 3 wells. These cells are harvested 48 and 72 hours post transfection for QPCR and phenotypic assays. Control TF1 cells, which are not transfected, are similarly treated. Samples are labeled T48+G, T48−G, according to the time of harvesting post-transfection and the presence (+G) or absence (−G) of GM-CSF in the media. RNA is isolated, cDNA is reverse transcribed and QPCR is performed as described above. Short Term (72 hrs post transfection) Cell Viability/Apoptosis assays employed are discussed below.
# After DMRIE transfections with siRNA Oligos against the apoptosis associated genes identified herein, or controls, cells are harvested at 24 or 48 hours post transfection as stated previously. RNA is then extracted using RNeasy Miniprep columns (Qiagen 74104) after lysis on KIAshredder columns (Qiagen 79654). RNA is quantified by spectrophotometric analysis and 1 μg is reverse transcribed into cDNA using SuperScriptII RNAseH-Reverse Transcriptase (Invitrogen 18064-014). The levels of transcript are compared by QPCR as described in detail in Example 3, relative to missense controls. QPCR primers are designed to amplify a PCR product of approximately 100 to 300 nucleotides in length from the CDS, following the guidelines outlined in the Quantitect SYBR Green PCR handbook from Qiagen.
# Two template standards are used for quantitative PCR assessment of mRNA levels: • 1. A control RPS13 i.e. Ribosomal Protein Sub unit 13 (NM_001017) amplified PCR product diluted to [1000,100,10,1 and 0.1 fg] respectively, used to quantify the level of transcript; • 2. RPS13 amplified from sample templates as separate PCR reactions for normalisation purposes.
# The cDNA templates from appropriate cell lines transfected with either gene specific, positive control e.g. Survivin or missense control siRNA are amplified with gene-specific QPCR primers using QuantiTectSYBR Green PCR kit (Qiagen 204143) on a DNA Engine Opticon System (MJ Research) (as described in detail in Example 3). The amplification conditions include a 95° C. step for 15 min for initial activation of HotStarTaq DNA polymerase, followed by 35 cycles of (15 s at 94° C., 30 s at 60° C., 30 s at 72°). The fluorescence of the samples at 521 nm is read between the annealing and extension steps of the protocol. The melting curves are calculated at the end of the 35 cycles and confirm product homogeneity.
# A standard curve is plotted using the log [template quantity] of the RPS 13 control template dilutions (as above) versus cycle number at which the fluorescence intensity measured in the well exceeds the level specified in the cycle threshold parameters (the C(T) value). An estimate of the quantity of initial template in treatment samples is determined from this plot and the amount of target mRNA present in each sample is normalized across samples by calculating the ratio of target to RPS13 for each sample.
# The normalised expression values are used to estimate percentage knockdown of target with reference to the control, transfected, cells (in this case cells transfected with missense siRNA).
Substance,"percentage survival relative to the missense, n = 1 (PC3 cells)","percentage survival relative to the missense, n = 1 (A549 cells)","percentage survival relative to the missense, n = 3 (A549 cells)","percentage survival relative to the missense, n = 1 (HCT15 cells)","percentage survival relative to the missense, n = 2 (HCT15 cells)","percentage survival relative to the missense, n = 3 (PC3 cells)","% Knockdown by RNAi, TF1 − GMCSF [1]","% Knockdown by RNAi, TF1 + GMCSF [1]","percentage survival relative to the missense, n = 2 (PC3 cells)","percentage survival relative to the missense, n = 2 (A549 cells)"
"siRNA MAK: sense GAAGCCAAGCAUGGGUGUUtt, antisense AACACCCAUGCUUGGCUUCtt (sense GAAGCCAAGCAUGGGUGUUTT; antisense AACACCCAUGCUUGGCUUCTT; chemistry not given here)",69.6%,51.6%,42.8%,75.9%,67.3%,–,–,–,–,–
"siRNA P14KB: sense GCUACGGAAGCUGAUCCUCtt, antisense GAGGAUCAGCUUCCGUAGCtt (sense GCUACGGAAGCUGAUCCUCTT; antisense GAGGAUCAGCUUCCGUAGCTT; chemistry not given here)",–,–,63.4%,–,–,8.4%,40%,–,–,–
"siRNA GRAF: siRNA duplex, sense GCGGAAGUUUGCAGAUUCCtt, antisense GGAAUCUGCAAACUUCCGCtt; same in Tables 9 and 11 (sense GCGGAAGUUUGCAGAUUCCTT; antisense GGAAUCUGCAAACUUCCGCTT; chemistry not given here)",–,–,–,–,–,–,73%,56%,–,–
"siRNA FLT4: sense GUACGGCAACCUCUCCAACtt, antisense GUUGGAGAGGUUGCCGUACtt (sense GUACGGCAACCUCUCCAACTT; antisense GUUGGAGAGGUUGCCGUACTT; chemistry not given here)",–,45.4%,28.7%,64.5%,48.1%,8.4%,–,–,71.7%,–
"siRNA MKNK: sense UACAUGGCCCCUGAGGUAGtt, antisense CUACCUCAGGGGCCAUGUAtt (sense UACAUGGCCCCUGAGGUAGTT; antisense CUACCUCAGGGGCCAUGUATT; chemistry not given here)",–,11.5%,23.3%,36%,–,8.4%,–,65%,–,67.9%
"siRNA PSKH1: sense GAACCUGCACCGCUCCAUAtt, antisense UAUGGAGCGGUGCAGGUUCtt (sense GAACCUGCACCGCUCCAUATT; antisense UAUGGAGCGGUGCAGGUUCTT; chemistry not given here)",29.8%,51.7%,–,28.2%,–,–,60%,–,–,–
"siRNA PCTAIRE: sense GUCAGUGCCCACAAAGACUtt, antisense AGUCUUUGUGGGCACUGACtt (sense GUCAGUGCCCACAAAGACUTT; antisense AGUCUUUGUGGGCACUGACTT; chemistry not given here)",–,–,–,–,–,–,70%,20%,–,–
"siRNA ROCK: siRNA duplex, sense UACAUGCCUGGUGGAGAUCtt, antisense GAUCUCCACCAGGCAUGUAtt; same in Tables 9 and 11 (sense UACAUGCCUGGUGGAGAUCTT; antisense GAUCUCCACCAGGCAUGUATT; chemistry not given here)",50.4%,16.3%,16.8%,61.9%,34.6%,22.8%,–,–,32.3%,28.4%
"siRNA NTKL: siRNA duplex, sense UGUGGAGCUGAUGAAGCACtt, antisense GUGCUUCAUCAGCUCCACAtt; same in Tables 9 and 11 (sense UGUGGAGCUGAUGAAGCACTT; antisense GUGCUUCAUCAGCUCCACATT; chemistry not given here)",11.6%,18.9%,28.1%,59.5%,55.3%,14.4%,–,–,45.7%,45.3%
"siRNA MPSK1: sense GGGUUAUGCCCACAGAGACtt, antisense GUCUCUGUGGGCAUAACCCtt (sense GGGUUAUGCCCACAGAGACTT; antisense GUCUCUGUGGGCAUAACCCTT; chemistry not given here)",–,–,–,68.3%,–,–,–,–,–,–
